Measurements taken from patent publication US9982033B2, “Factor VIII polypeptide titers in cell cultures” (Novo Nordisk A/S, priority 2007, dated 2018).

Key:
[1] = tested on: Factor VIII producing cells; test: Supplementing serum-free cell culture medium of Factor VIII producing cells with OPLS (high-cell density perfusion model); assay type: cell-based, Chinese Hamster; conditions: for Factor VIII productivity / Factor VIII protein specific activity: 24 hours, 35° C.
Source text: Cell line: The cell line used for transfection, dhfr− CHO cells DUKX-B11 cells (Urlaub, G. & Chasin, L. A. (1980) Proc. Natl. Acad. Sci. USA 77, 4216-4220), was adapted to grow in suspension cultures using serum-free medium supplemented with ribonucleosides and deoxyribonucleosides.
Expression vector: Factor VIII transcription is achieved using an adenovirus-SV40 promoter and a selection by a di-hydrofolate reductase selection marker. The expressed Factor VIII molecule consist of the heavy chain (HC) and light chain (LC) of Factor VIII connected with a small linker derived from the B-domain. The B-domain has been removed, since this allows for higher expression of Factor VIII and the biological activity of Factor VIII is retained.
Cell culturing during serum free medium supplementation experiments: For media supplement experiments cells were cultivated in a high-cell density perfusion model in 50 mL shaker tubes with vented cap at 35° C. in serum free medium, as described below. Cells were cultivated in large shaker flasks at 37° C. Cell viability was measured at cell harvest, and this was always >95%. Harvested cells were re-suspended into fresh medium. 2.5 mL of the harvested and re-suspended cells was added to 2.5 mL of fresh medium containing the supplement to give a total volume of 5 mL, with a concentration of 1×10^7 cells/mL. Shaker tubes were then placed in shaker at 35° C. and 250 rpm. After 24 hours, samples were assayed for cell density, viability, CoA, ELISA and Factor VIII protein integrity by Western blot.
CoA assay (Factor VIII activity assay): In the presence of calcium and phospholipids, Factor X is activated to Factor Xa by Factor IXa. This generation is greatly stimulated by Factor VIII, which may be considered as a cofactor in this reaction. By using optimal amounts of Ca^2+ and phospholipids and an excess of Factors IXa and X, the rate of activation of Factor X is solely dependent on the amount of Factor VIII. Factor Xa hydrolyses the chromogenic substrate S-2765 thus liberating the chromophoric group, pNA. The colour is then read photometrically at 405 nm. The generated Factor Xa and thus the intensity of colour is proportional to the Factor VIII activity in the sample. Hydrolysis of S-2765 by thrombin formed is prevented by the addition of the synthetic thrombin inhibitor, I-2581, together with the substrate (Chromogenix Coatest SP Factor VIII, diaPharma)
ELISA: Strip wells are pre-coated with sheep polyclonal antibody to human Factor VIII. Samples are diluted and applied to the wells. The Factor VIII antigen present binds to the coated antibody. After washing away unbound material, peroxidase-labeled sheep detecting antibody is applied and allowed to bind to the captured Factor VIII. The wells are again washed and a solution of TMB (the peroxidase substrate tetramethylbenzidine) is applied and allowed to react for a fixed period of time. A blue color develops which changes to yellow upon quenching the reaction with acid. The color formed is measured spectrophotometrically in a microplate reader at 450 nm. The absorbance at 450 nm is directly proportional to the quantity of Factor VIII antigen captured onto the well (VisuLize, FVIII antigen kit, Affinity biologicals). The assay is calibrated using purified B domain deleted Factor VIII.
OPLS was supplemented to serum free cell culture medium in the indicated concentration according to the experimental details described under materials and methods. The results can be seen from the below Table 3 and from FIGS. 2A and 2B.

[2] = tested on: BDD Factor VIII producing cells (1C5-SF cell line); test: Supplementing serum-free medium of BDD Factor VIII producing cells with O-phospho-L-serine and/or a plant hydrolysate; assay type: cell-based; conditions: O-phospho-L-serine 20 mM and/or plant hydrolysate 5 mg/ml, four days after seeding
Experimental: ELISA: Strip wells are pre-coated with sheep polyclonal antibody to human Factor VIII. Samples are diluted and applied to the wells. The Factor VIII antigen present binds to the coated antibody. After washing away unbound material, peroxidase-labeled sheep detecting antibody is applied and allowed to bind to the captured Factor VIII. The wells are again washed and a solution of TMB (the peroxidase substrate tetramethylbenzidine) is applied and allowed to react for a fixed period of time. A blue color develops which changes to yellow upon quenching the reaction with acid. The color formed is measured spectrophotometrically in a microplate reader at 450 nm. The absorbance at 450 nm is directly proportional to the quantity of Factor VIII antigen captured onto the well (VisuLize, FVIII antigen kit, Affinity biologicals). […]
F25 ELISA: ELISA: Strip wells are pre-coated with sheep polyclonal antibody to human Factor VIII. […] The color formed is measured spectrophotometrically in a microplate reader at 450 nm. The absorbance at 450 nm is directly proportional to the quantity of Factor VIII antigen captured onto the well. […]
The total Factor VIII antigen content of each culture was determined by sandwich ELISA. […]

[3] = OPLS 0.03 mM in serum free medium
[4] = OPLS 0.1 mM in serum free medium
[5] = OPLS 0.3 mM in serum free medium
[6] = OPLS 10 mM in serum free medium
[7] = OPLS 30 mM in serum free medium

## N[C@@H](COP(=O)(O)O)C(=O)O [OPLS, O-Phospho-L-Serine]
[1]; [3]
  Factor VIII productivity: 0.068 pcd
  Factor VIII protein specific activity: 11.8 U/microg
[1]; [4]
  Factor VIII productivity: 0.062 pcd
  Factor VIII protein specific activity: 12.8 U/microg
[1]; [5]
  Factor VIII productivity: 0.052 pcd
  Factor VIII protein specific activity: 12.2 U/microg
[1]; OPLS 1 mM in serum free medium
  Factor VIII productivity: 0.058 pcd
  Factor VIII protein specific activity: 12.6 U/microg
[1]; OPLS 3 mM in serum free medium
  Factor VIII productivity: 0.066 pcd
  Factor VIII protein specific activity: 15.8 U/microg
[1]; [6]
  Factor VIII productivity: 0.10 pcd
  Factor VIII protein specific activity: 15.4 U/microg
[1]; [7]
  Factor VIII productivity: 0.18 pcd
  Factor VIII protein specific activity: 15.0 U/microg
[1]; conclusion in words, FIG. 2A
  specific productivity of Factor VIII producing cells: increases
[1]; conclusion in words, FIG. 2B
  specific activity of Factor VIII: increases
[2]; F25 ELISA versus total Factor VIII antigen
  proportion of Factor VIII with intact heavy chain C-terminal in the medium: increased
[2]; CDM4CHO medium, FIG. 3A-C
  quality of recombinant Factor VIII from cell cultures (specific activity): improved
  yield of recombinant Factor VIII from cell cultures: improved
